Columns and labels:
[1] = test system: rat EAE model; assay: Lewis rat model of experimental autoimmune encephalomyelitis (EAE); assay type: in vivo; conditions: 10 mg/kg/day oral gavage
Procedure: 7- to 10-week female Lewis rats (The Jackson Laboratory, Bar Harbor, Me.) were used since they are susceptible to EAE, and since MS occurs at a 2:1 ratio between females and males respectively. Rats were immunized either at the base of the tail (or in one hind footpad) with myelin antigen myelin basic peptide, MBP 85-99. Peptide antigens were mixed with complete Freund's adjuvant including killed mycobacterium tuberculosis at a doses of 4 mg/ml. 200 micrograms of antigen mixed with the 0.1 ml emulsion of adjuvant were used. The myelin antigens were dissolved in phosphate buffered saline.
Nine rats were used in each of the following groups: EAE control, vehicle control, compound 15 (prevention), compound 15 (pro-treatment), phenyl-N-butyl-nitrone (prevention) and phenyl-N-butyl-nitrone (pro-treatment). For the treatment model, fifteen rats were used in each of three groups: EAE control, vehicle control, compound 15 (treatment). Drugs were administered via oral gavage feeding. Rats were dosed daily after the first dose until recovery from acute disease (typically 20 days after EAE induction). Compound 15 was dosed at 10 mg/kg/day and phenyl-N-butyl-nitrone was dosed at 100 mg/kg/day. In the prevention model, first dose of the drugs was administered 7 days prior to EAE induction. In the pro-treatment model, first dose was administered 4 days after EAE induction. In the treatment model, first dose was administered at the peak of the disease after animals were randomized into equal groups.
All rats were followed daily for clinical signs and weighed every four days. Longer water tubes were used to allow mice to drink when they develop paralysis, and chow was put on the floor of the cage to facilitate nourishment if the rats were paralyzed. Rats were scored as follows: 0, healthy; 1, tail weakness or paralysis; 2, paraparesis (incomplete paralysis of one or two hind limbs or plegia of one hind limb); 3, paraplegia extending to the thorax; 4, forelimb weakness, paralysis with hind limb paraparesis or paraplegia; 5, moribund or dead animal.

[2] = biological target: CXCR4 (Homo sapiens, UniProt P61073); assay: Migration of RBL-2H3 cells expressing CXCR4; assay type: cell-based; set-up: cDNA fragments encompassing chemokine receptor coding regions; expressed in transfected cells; conditions: RBL-2H3 cells expressing CXCR4, 2 hours
Chain of CXCR4 (P61073 whole entry, the tested form may be a part): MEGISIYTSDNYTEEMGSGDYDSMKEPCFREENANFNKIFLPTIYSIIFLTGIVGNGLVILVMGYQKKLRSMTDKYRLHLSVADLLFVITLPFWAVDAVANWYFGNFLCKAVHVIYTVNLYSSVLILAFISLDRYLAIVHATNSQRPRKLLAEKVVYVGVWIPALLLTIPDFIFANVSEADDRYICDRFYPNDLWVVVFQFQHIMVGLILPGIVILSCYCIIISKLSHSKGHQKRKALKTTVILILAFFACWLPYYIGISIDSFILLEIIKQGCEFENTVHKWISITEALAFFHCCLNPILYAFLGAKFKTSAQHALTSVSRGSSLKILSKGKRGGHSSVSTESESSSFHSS
Procedure: (§1) RBL-2H3 cells were obtained from American Type Culture Collection (CRL-2256) and cultured in Minimum essential medium (MEM) with 10% heat-inactivated fetal bovine serum, 100 μg/ml penicillin/streptomycin. cDNA fragments encompassing chemokine receptor coding regions were obtained from cDNAs synthesized from HL-60 cells and/or human peripheral blood mononuclear cells by the polymerase chain reaction. Expression constructs of chemokine receptors were generated by cloning PCR fragments into expression vector pEF6/V5-TOPO (K9610-20, Invitrogen). Plasmid containing full-length human CXCR5 cDNA (human CXCR50TN00, pcDNA3.1+) was purchased from UMR cDNA Resource Center (Rolla, Mo.). Plasmid containing full-length human CCR7 cDNA (human CCR0700000, pcDNA3.1+) was purchased from UMR cDNA Resource Center (Rolla, Mo.). Transient transfections were carried out with Fugene 6 transfection reagent (1814443, Roche Applied Science) according to the manufacturer's instructions. […]
(§2) Following the migration assays, cells that had migrated to the bottom wells were quantitated using CyQuant reagents according to the manufacturer's instructions (Molecular Probes, Eugene, Oreg.). […] The fluorescence intensity (excitation wavelength at 485 nm and emission wavelength at 530 nm) was measured using Safire Spectrometer (Tecan; Research Triangle Park, N.C.).

[3] = biological target: T1, CCR7 (Homo sapiens, UniProt P32248); assay: Migration of RBL-2H3 cells expressing CCR7; assay type: cell-based; conditions: RBL-2H3 cells expressing CCR7, 2 hours
T1 construct: Plasmid containing full-length human CCR7 cDNA; host or cells: RBL-2H3 (ATCC CRL-2256), transient transfection
T1 sequence (P32248 25-378): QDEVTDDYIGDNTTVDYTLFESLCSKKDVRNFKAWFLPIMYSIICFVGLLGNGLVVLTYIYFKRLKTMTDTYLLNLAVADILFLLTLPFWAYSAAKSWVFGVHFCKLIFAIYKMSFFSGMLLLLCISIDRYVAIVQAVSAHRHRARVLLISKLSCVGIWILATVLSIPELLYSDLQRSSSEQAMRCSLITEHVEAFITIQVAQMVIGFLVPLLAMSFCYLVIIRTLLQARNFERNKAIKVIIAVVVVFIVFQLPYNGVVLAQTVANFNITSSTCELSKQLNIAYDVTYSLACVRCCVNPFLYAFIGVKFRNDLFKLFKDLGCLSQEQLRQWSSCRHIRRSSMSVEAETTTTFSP
Procedure: as §1, §2

SMILES | disease free rats, treatment model ([1]; first dose at the peak of EAE, compared to controls, FIG. 14) | clinical scores, pro-treatment model ([1]; rats, first dose 4 days after EAE induction, compared to control or PBN, FIG. 13) | change of clinical scores on day 15, pro-treatment model ([1]; rats, first dose 4 days after EAE induction, day 15) | clinical scores, prevention model ([1]; rats, first dose 7 days prior to EAE induction, compared to controls and to PBN (100 mg/kg/day), FIG. 12) | induction of cell migration [2] | induction of cell migration [3]
COCOc1c(C(C)(C)C)cc(/C=[N+](\[O-])C(C)(C)C)cc1C(C)(C)C [Compound 15, α-(4-methoxymethoxy-3,5-di-tert-butyl-phenyl)-N-tert-butylnitrone] | significantly more rats treated with compound 15 were disease free | significantly better clinical scores | improved dramatically | significantly better clinical scores |  | 
CCC(C)c1cc(/C=[N+](\[O-])C(C)(C)C)cc(C(C)CC)c1O (stereo not drawn) [Compound 17] |  |  |  |  | induced migration | induced migration
